Data taken from patent publication US12624173B2, “Biodegradable polymeric compositions, methods of preparation and uses thereof” (B.G. NEGEV TECHNOLOGIES AND APPLICATIONS LTD., AT …, priority 2019, dated 2026).
Where two headings read alike, the source gives them in different places.

How the values were obtained:
[1] = Cannabidiol distribution in brain and plasma 1 h after IN and IV administration; assay type: in vivo; details: rat
Procedure: The administered intranasal dose used in each animal was 220 μg CBD/kg body weight. The applied volume was approximately 15 μL/nostril. For the intravenous dose, a solution of CBD for injection was prepared by dissolving CBD in a small portion of ethanol, then mixed with a sterile saline solution (pH7.4) containing 1.5% Tween 80 and 0.1% ascorbic acid. The final concentration of ethanol was 5%. […] After 60 minutes from administration, the animals were euthanized by CO2 aspiration. […] The brain was then carefully excised, washed with saline, frozen at −80° C. and lyophilized.
The quantification of CBD was carried out at 220 nm.

[2] = CBD in oil, humans; cited from earlier work
[3] = rat, in vivo, iv
Procedure: (§1) For intravenous administration, aqueous solution of GR hydrochloride was prepared by dissolving the drug in a sterile saline solution. Approximately 0.3 ml of the solution were injected into the tail vein of a sedated animal (GR HCl dose=36 μg/kg body weight). The animals were sedated with isoflurane vapor just before administration. Sixty minutes after the administration, the animals were euthanized by CO2 aspiration. Then, blood sample was taken by cardiopuncture into heparinized tubes. Blood in heparinized tubes was centrifuged at 10,000-g for 10 min and the separated plasma was transferred into vials and kept at −20° C. until analyzed by HPLC. The brain was then carefully excised, washed with saline and frozen at −80° C.
(§2) Quantification of GR in plasma was performed by mixing 1 ml of plasma sample with 2 ml of methanol, followed by vortex stirring and centrifugation at 10,000-g for 10 min. The brain was homogenized with 2 ml of methanol/0.5 N HCl solution (1:1) followed by centrifugation at 10,000-g for 10 min. The supernatant solutions of both plasma and brain extracts were analyzed immediately by HPLC. Aliquots of 20 μl from each sample were injected into a HPLC system, equipped with a prepacked CN column. The quantification of GR was carried out at 301 nm. The samples were chromatographed using an isocratic mobile phase consisting of acetonitrile-acetate buffer solution pH5 (45:55) at a flow rate of 1 ml/min.

[4] = after IV curcumin in rats; cited from earlier work
[5] = cited from earlier work
[6] = Granisetron distribution in brain and plasma 1 h after IN and IV administration; details: rat
Procedure: as §1, §2

SMILES: C=C(C)[C@@H]1CCC(C)=C[C@H]1c1c(O)cc(CCCCC)cc1O [CBD, Cannabidiol]
- concentration at 1 h ([1]; plasma, IV injection of CBD solution, dose 220 μg/Kg, 1 hour after administration, read-out: Plasma level (cannabidiol)): 71.2 ng/mL
- CBD brain concentration ([1]; 1 h after iv administration of the same dose (220 μg/Kg)): no detectable concentration
- Brain Level (cannabidiol) ([1]; IV injection of CBD solution, dose 220 μg/Kg, 1 hour after administration): Undetectable
- oral bioavailability [2]: about 6%

SMILES: CN1C2CCCC1CC(NC(=O)c1nn(C)c3ccccc13)C2.Cl (stereo not shown) [GR-HCl]
- portion of the dose that reached the brain [3]: ca. 0.64%

SMILES: COc1cc(/C=C/C(=O)CC(=O)/C=C/c2ccc(O)c(OC)c2)ccc1O [curcumin, diferuloyl methane]
- t1/2 [4]: 0.47 h

SMILES: CN1C2CCCC1CC(NC(=O)c1nn(C)c3ccccc13)C2 (stereo not shown) [granisetron, Granisetron]
- average Cmax ([5]; 1 mg oral dose): 3.63 ng/mL
- Vd (volume of distribution) ([5]; in vivo): 3.94 L/kg
- clearance (CL) ([5]; in vivo): 6.83 mL/min/kg
- protein binding ([5]; in vivo): 65%
- t1/2 ([5]; in vivo): 6.23 h
- Plasma level (granisetron) ([6]; IV injection of GR hydrochloride in saline (GR HCl 36 μg/kg), 1 hour after administration): Undetectable
- concentration at 1 h ([6]; brain, iv, 36 μg/kg): 59.7 ng/g
